Read-outs that look alike come from different tables or passages of the source.
How the values were obtained:
[1] = test system: cardiomyocytes derived from hiPSCs from a LQTS3 patient; assay: cells; conditions: Homo sapiens, Cardiomyocyte
[2] = test system: normal human induced pluripotent stem cell (hiPSC) cardiomyocyte; conditions: for WT-Fold Prolongation: APD; for WT-Cessation Dose (μM): cessation of beating
[3] = test system: cardiomyocytes derived from hiPSCs from a LQTS3 patient; conditions: for LQT-Fold (prolongation): cell in fold shortening column marked (prolongation); for LQT-EC50 (μM) Shortening: AP shortening
[4] = read-out: LQT-IC50 (uM)-Shortening
[5] = read-out: LQT-EC50 (μM) Shortening, pyridyl derivatives
[6] = read-out: LQT-EC50 (μM) Shortening, LQT-3 cardiomyocytes, AP shortening
[7] = WT cardiomyocytes, AP prolongation
[8] = read-out: LQT-IC50 (prolongation)
[9] = LQT-3 cardiomyocytes, cessation of beating

| Molecule | WT-Fold Prolongation ([2]; normal hiPSC cardiomyocytes) | Cessation of Beating ([2]; normal hiPSC cardiomyocytes) | WT-EAD Dose ([2]; normal hiPSC cardiomyocytes) [µM] | LQT-Cessation Dose ([3]; LQT3 cardiomyocytes) | LQT-Fold Shortening ([3]; LQT3 cardiomyocytes) | WT-Prolongation Dose ([2]; normal hiPSC cardiomyocytes) | LQT-Shortening Dose ([3]; LQT3 cardiomyocytes) | further results |
| --- | --- | --- | --- | --- | --- | --- | --- | --- |
| Cc1ccc(OCC(N)C2CC2)c(C)c1.Cl (centres unmarked) [Compound 65] | 2.12 | 200 µM | 66 | 200 µM | 1.119 |  |  | IC50 [1, 4]: 1.36 µM |
| Cl.NC(COc1cccc(C(F)(F)F)c1)c1ccccc1 (centres unmarked) [Compound 81, 1-phenyl-2-(3-(trifluoromethyl)phenoxy)ethan-1-amine] | None | 66 µM |  | 66 µM | 1.539 | None |  | IC50 [1, 4]: 4.07 µM |
| Cc1cccnc1OCC(=NOCc1ccccc1)c1ccccc1 [Compound 19] | None | 133 µM |  | 133 µM | 1.406 | None |  | EC50 [1, 5]: 1.38 µM; IC50 [1, 4]: 1.38 µM; WT-Cessation Dose ([2]; pyridyl derivatives): 133 µM; WT-EC50 (μM) Prolongation ([2]; pyridyl derivatives): Does Not Prolong AP; LQT-Fold Shortening ([3]; pyridyl derivatives): 1.406; LQT-Shortening Dose ([3]; pyridyl derivatives): 66 µM |
| NC(COc1ccncc1)c1ccccc1 (centres unmarked) [Compound 126] |  |  |  |  |  |  |  | EC50 [1, 6]: 3.82 µM; EC50 [1, 5]: ~4 µM; WT-EC50 (μM) Prolongation [2, 7]: Does Not Prolong AP; WT-Cessation Dose (μM) ([2]; WT cardiomyocytes): No cessation of beating; LQT-Fold Shortening ([3]; LQT-3 cardiomyocytes): 1.281 |
| COc1ccccc1OCC(N)c1ccccc1 (centres unmarked) [Compound 26, 2-(2-methoxyphenoxy)-1-phenylethanamine] | 2.502 | 22 µM | 7.4 | 133 µM | 1.482 |  |  | IC50 [1, 4]: 0.13 µM |
| Cc1cccc(Cl)c1OC[C@@H](C)N [Compound 56] | 3.925 | None | 133 | None | 1.189 |  |  | IC50 [1, 4]: 0.04 µM |
| C[C@@H](N)COc1ccccc1.Cl [Compound 71, (R)-1-phenoxypropan-2-amine hydrochloride] | 1.997 | None | 200 | None |  |  |  | IC50 [1, 8]: 194 µM; LQT-Fold (prolongation) [3]: 1.214 (prolongation) |
| COCCNC(COc1cc(C)cc(C)c1)C1CC1.Cl (centres unmarked) [Compound 68] | 1.686 | 200 µM | 66 | 200 µM | 1.11 |  |  | IC50 [1, 4]: 0.022 µM |
| NC(COc1cccc2ccccc12)c1ccccc1 (centres unmarked) [Compound 129] |  |  |  |  |  |  |  | EC50 [1, 6]: 0.82 µM; WT-EC50 (μM) Prolongation [2, 7]: Does Not Prolong AP; LQT-Fold Shortening ([3]; LQT-3 cardiomyocytes): 1.316; LQT-Cessation Dose [3, 9]: 66 µM |
| CC(=O)NC(COc1c(C)cccc1C)c1ccccc1 (centres unmarked) [Compound 28, N-(2-(2,6-dimethylphenoxy)-1-phenylethyl)acetamide] | None | 66 µM |  | 66 µM | 1.620 | None |  | IC50 [1, 4]: > 0.8 µM |
| CCc1ccccc1OCC(N)c1ccccc1 (centres unmarked) [Compound 24] | None | 66 µM |  | 22 µM | 1.979 | None |  | IC50 [1, 4]: 0.38 µM |
| Cc1ncccc1OCC(N)c1ccccc1 (centres unmarked) [Compound 111] |  |  |  |  |  |  |  | EC50 [1, 6]: 8.57 µM; EC50 [1, 5]: ~8 µM; WT-EC50 (μM) Prolongation [2, 7]: Does Not Prolong AP; LQT-Fold Shortening ([3]; LQT-3 cardiomyocytes): 1.426; LQT-Shortening Dose (μM) ([3]; LQT-3 cardiomyocytes): Does Not Shorten |
| Cc1cccc(C)c1OCC(N)C1CCCCC1.Cl (centres unmarked) [Compound 73] | None | 66 µM |  | 66 µM | 1.136 | None |  | IC50 [1, 4]: 0.082 µM |
| C[C@H](N)COc1ccccc1.Cl [Compound 72] | 2.93 | None | 133 | None |  |  |  | IC50 [1, 8]: 129 µM; LQT-Fold (prolongation) [3]: 1.133 (prolongation) |
| Cc1ccc(C(N)COc2c(C)cccc2C)cc1 (centres unmarked) [Compound 17, 2-(2,6-dimethylphenoxy)-1-p-tolylethanamine] | None | 66 µM |  | 66 µM | 1.58 | None |  |  |
| Cc1ccc(OCC(C)N)c(C)c1.Cl (centres unmarked) [Compound 64] | 2.621 | None | 133 | None | None |  | None |  |
| Cc1cccc(C)c1OCC(C)Nc1ccccc1 (centres unmarked) [Compound 43, 1-(2,6-dimethylphenoxy)-N-phenylpropan-2-amine] | None | None |  | None | None | None | None |  |

| Molecule | WT-Fold Prolongation ([2]; normal hiPSC cardiomyocytes) | Cessation of Beating ([2]; normal hiPSC cardiomyocytes) | WT-EAD Dose ([2]; normal hiPSC cardiomyocytes) [µM] | LQT-Cessation Dose ([3]; LQT3 cardiomyocytes) | LQT-Fold Shortening ([3]; LQT3 cardiomyocytes) | WT-Prolongation Dose ([2]; normal hiPSC cardiomyocytes) | LQT-Shortening Dose ([3]; LQT3 cardiomyocytes) | further results |
| --- | --- | --- | --- | --- | --- | --- | --- | --- |
| 2-(2,6-dimethylphenoxy)-1-(4-methoxyphenyl)ethanamine [Compound 14] | None | None |  | None | None | None | None | LQT-IC50 (uM)-Shortening ([3]; APD shortening, LQT3 cardiomyocytes): None |
| NC(COc1ccnc(C(F)(F)F)c1)c1ccccc1 (centres unmarked) [Compound 128] |  |  |  |  |  |  |  | WT-EC50 (μM) Prolongation [2, 7]: Does Not Prolong AP; WT-Cessation Dose (μM) ([2]; WT cardiomyocytes): No cessation of beating; LQT-Fold Shortening ([3]; LQT-3 cardiomyocytes): 1.226; LQT-EC50 (μM) Shortening ([3]; LQT-3 cardiomyocytes): Shortens |
| COCCNC(COc1ccc(C)nc1C)c1ccccc1 (centres unmarked) [Compound 125] |  |  |  |  |  |  |  | WT-EC50 (μM) Prolongation [2, 7]: Does Not Prolong AP; LQT-Fold Shortening ([3]; LQT-3 cardiomyocytes): Does Not Shorten; LQT-Shortening Dose (μM) ([3]; LQT-3 cardiomyocytes): Does Not Shorten; LQT-EC50 (μM) Shortening ([3]; LQT-3 cardiomyocytes): Does Not Shorten |
| Cc1cc(C)cc(OCC(NCCO)c2ccccc2)c1 (centres unmarked) [Compound 92] | None | 66 µM |  | 66 µM | 1.41 | None |  |  |
| C[C@@H](N)COc1ccccc1Cl [Compound 58] | 2.392 | None | 200 | None | None |  | None |  |
| COc1ccccc1OCC(C)N (centres unmarked) [Compound 52, 1-(2-Methoxyphenoxy)propan-2-amine] | 2.499 | None | 133 | None | None |  | None |  |
| CCCNC(COc1cccc(C)c1C)c1ccccc1 (centres unmarked) [Compound 31, 2-(2,3-dimethylphenoxy)-N-propyl-1-phenylethanamine] | None | None |  | 133 µM | None | None | None |  |
| CC(=O)NC(C)COc1c(C)cccc1C (centres unmarked) [Compound 53] | None | None |  | None | None | None | None |  |
| CCCNC(C)COc1c(C)cccc1C (centres unmarked) [Compound 38, 1-(2,6-dimethylphenoxy)-N-propylpropan-2-amine] | 4.584 | 200 µM | 66 | 200 µM | 1.19 |  |  |  |
| NC(COc1ccc(C(F)(F)F)nc1)c1ccccc1 (centres unmarked) [Compound 117] |  |  |  |  |  |  |  | WT-EC50 (μM) Prolongation [2, 7]: Does Not Prolong AP; LQT-Fold Shortening ([3]; LQT-3 cardiomyocytes): Does Not Shorten; LQT-Shortening Dose (μM) ([3]; LQT-3 cardiomyocytes): Does Not Shorten; LQT-EC50 (μM) Shortening ([3]; LQT-3 cardiomyocytes): Does Not Shorten |
| Cc1cccc(C)c1OC[C@H](N)C1CC1.Cl [Compound 61] | 3.829 |  |  |  | None |  | None | Cessation of Beating [2]: None; WT-EAD Dose ([2]; human, 5 min): 66 µM; LQT-Cessation Dose ([3]; human, 5 min): 200 µM |
| C[C@H](N)COc1ccccc1Cl [Compound 59] | 2.832 | None | 133 | None | None |  | None |  |
| COCCNC(COc1cnccc1C(F)(F)F)c1ccccc1 (centres unmarked) [Compound 124] |  |  |  |  |  |  |  | WT-EC50 (μM) Prolongation [2, 7]: Does Not Prolong AP; LQT-Fold Shortening ([3]; LQT-3 cardiomyocytes): 1.601; LQT-EC50 (μM) Shortening ([3]; LQT-3 cardiomyocytes): Shortens |
| CCNC(C)COc1c(C)cccc1C (centres unmarked) [Compound 41, 1-(2,6-dimethylphenoxy)-N-ethylpropan-2-amine] | 5.338 | None | 133 | None | None |  | None |  |
| NC(COc1cc(C(F)(F)F)cc(C(F)(F)F)c1)c1ccc2ccccc2c1 (centres unmarked) [Compound 132] |  |  |  |  |  |  |  | WT-EC50 (μM) Prolongation [2, 7]: Does Not Prolong AP; LQT-Fold Shortening ([3]; LQT-3 cardiomyocytes): 1.205; LQT-EC50 (μM) Shortening ([3]; LQT-3 cardiomyocytes): Shortens; LQT-Cessation Dose (μM) [3, 9]: No cessation of beating |
| c1ccc(CON=C(COc2ccccn2)c2ccccc2)cc1 [Compound 18] | None | None |  | None | None | None | None |  |
| CC(COC1CCCCC1)=NOCc1ccccc1 [Compound 45] | None | None |  | None | 1.37 | None |  |  |

Source: US11492325B2, “Compounds as inhibitors of sodium channels” (Human BioMolecular Research Institute, priority 2016, dated 2022)
